Laboratory results: patent US20250319067A1, “Improved Pharmacokinetics of Tryptamine Prodrugs” (Reunion Neuroscience, Inc., priority 2023, published 2025)

Experiments:
[1] = GLP 14-day extended single SC dose toxicity study in rats; details: Sprague Dawley, rat, plasma, sc, 10 mg/kg
Description: In a GLP 14-day extended single SC dose toxicity study in rats, doses of 0 (PBS), 10, 25 and 75 mg/kg were evaluated. Animals were necropsied on Study Day 2 and Day 14 (also referred to as Recovery Day 13) post-dosing.
A non-GLP dose range study was performed in the dog in order to determine an MTD. Single SC doses of 7.5, 15 and 20 mg/kg were evaluated.

in vivo [2] = details: for half-life: male, cynomolgus monkey, plasma; for mean terminal half-life: monkey
Description: Two male cynomolgus monkeys were administered 3 treatments in a crossover study design (Calvert Laboratories, Inc, Scott Township, PA; QPS, LLC, Newark, DE, USA). In treatment 1, RE104 was administered as an IV bolus dose at 1 mg/kg. In treatment 2, RE104 was administered as an SC injection at 0.5 mg/kg, and in treatment 3, RE104 was administered PO at 5 mg/kg, with all dosing formulations prepared in phosphate buffered saline.

[3] = Plasma protein binding, animal plasma; format: in vitro ADME; details: animal plasma proteins
[4] = Plasma protein binding, human plasma; format: in vitro ADME; details: human plasma proteins, 1 to 20 PM; read-out: plasma protein binding (bound)
[5] = Metabolite profiling in monkey plasma after SC RE104; format: in vivo, cynomolgus monkey; details: pooled plasma 0 to 12 hours post dose, SC 0.5 mg/kg RE104
Text: Blood samples were centrifuged to obtain plasma.

healthy females = assay: Phase 1 FIH study: modified Drug Effect Questionnaire (DEQ-High); format: in vivo, human; details: plasma concentration below 40 ng/mL
Description: (§1) The study was a double-blind, randomized, placebo-controlled Phase 1 single ascending dose study in up to 6 cohorts in healthy females. Eligibility was assessed during a screening period of up to 28 days prior to enrollment. For the treatment period, subjects were admitted to the clinical research unit (CRU) one day prior to the dosing (Day −1). On Day 1, all subjects will received the assigned SC dose of RE104 HCl or placebo in a fed state (after domiciling overnight and consuming a planned evening meal on Day −1 and morning meal on Day 1 while at the CRU). Subjects were allowed to select snacks from a planned menu from 4 hours following dosing. Subjects were discharged from the clinic on Day 2 (−24 hours post-dose) after all required study procedures were completed and if deemed medically fit. Subjects returned to the clinic on Day 10 (±2 days) for a follow up visit.
The Drug Effect Questionnaire (DEQ) Feel/High is widely used in studies of acute subjective response to a variety of substances, to assess two key aspects of subjective experience: (1) the strength of substance effects and (2) desirability of substance effects (Morean et al., 2013). The modified DEQ assesses the extent to which subjects (1) feel any substance effect(s) and (2) feel high. This version of the DEQ includes the following items: “Do you feel a drug effect right now?” (FEEL); “Are you high right now?” (HIGH). FIG. 2 sets out the modified DEQ that was used.
The modified DEQ was used as an 11-point numeric rating scale (0-10) administered by a qualified staff member. The subjects were asked to verbally respond to indicate how strongly they feel the drug effect and how high they feel on the scale of 0-10 after being administered the study drug (Kollltveit et al., 2020).

[6] = Phase 1 FIH study: plasma pharmacokinetics (LC-MS/MS); format: in vivo; details: female, plasma, human; for half-life: read-out: t1/2, mean (converted)
Description: as §1
The concentrations of RE104 and isoprocin in plasma were determined using a validated Liquid chromatography tandem mass spectrometry (LC-MS/MS) assay.

in vivo [7] = details: male, beagle, dog, plasma, po, 5 mg/kg
Description: Two consecutive doses were separated by z7 days. Plasma samples were analyzed using an LC-MS/MS method (lower limit of quantification of 1.00 ng/mL for both analytes).
Pharmacokinetic parameters were calculated using Phoenix WinNonlin, version 6.3 or 8.2 (Certara, Princeton, NJ, USA).
For dog PK assessments, approximately 0.5 mL of blood was collected via superficial vein before dose and at 5 (for IV and SC injections only), 15, and 30 minutes and 1, 2, 4, 8, 16, 24, 48, and 72 hours post dose into tubes containing K2EDTA with 10 mM Dichlorvos as the anticoagulant and stabilizer, respectively.

[8] = in PBS; cited from earlier work
humans = details: human, cited from earlier work
[9] = system: primary human hepatocytes; assay: Metabolite profiling in plated human hepatocytes; details: 1 μM, pooled plated human hepatocytes
Description: The formation of metabolites was monitored at 0, 4, 8, and 24 hours, respectively. […] Samples for positive and negative controls were determined at 0, 8, and 24 hours, respectively. RE104 and its metabolites were identified and profiled using ultrahigh-performance liquid chromatography (Supplemental Methods).
The quenched samples were pipetting mixed, harvested, and stored at −70° C. or lower until liquid chromatography tandem mass spectrometry analysis. […] The plated human hepatocyte incubation samples were frozen at ≤−70° C. or lower immediately and thawed to room temperature before sample processing. A 500-μL aliquot of each sample was transferred to matrix tubes (1.4 mL), followed by the addition of 500-μL mixed solvent acetonitrile:methanol:for mic acid (50:50:0.1, v/v/v). The resulting mixtures were vortex mixed for 2 minutes and centrifuged at 3000 rpm for 10 minutes. The supernatants from the triplicate incubations were pooled to generate the pooled samples (1.5 mL/each) for the LC-MS analysis.
For all metabolite identification and profiling experiments, RE104 and its metabolites were identified and profiled by UHPLC in a Shimadzu Nexeran™ UHPLC system coupled with a high-resolution mass spectrometer SCIEX 6600 Triple TOF®. Mass spectrometry analysis was carried out by using an electrospray ionization source operating in positive ion mode with full-scan TOF MS and MS/MS modes. […]

[10] = Metabolite profiling in rat plasma after SC RE104; details: 0- to 10-hour pooled plasma, SC 10, 25, or 75 mg/kg RE104
Description: Metabolite profiling and identification was performed using rat, dog, and nonhuman primate plasma samples after a single SC injection of RE104 (QPS, LLC, Newark, DE, USA).
Blood samples were centrifuged to obtain plasma. Plasma samples for rat and dog studies were pooled across time points to 1 sample per dose and sex separately; plasma samples from monkeys were pooled to generate 1 combined sample.
Metabolite profiling and identificationFor experiments performed in rats, blood samples were collected before dose and at 15 minutes, 30 minutes, and 1, 2, 4, 6, and 10 hours after dose. Blood samples from dogs were collected before dose and at 5 minutes, 30 minutes, and 1, 2, 4, 8, 12, and 24 hours after dose. Monkey blood samples were collected before dose and at 5 minutes, 15 minutes, 30 minutes, and 1, 1.5, 2, 4, 8, and 12 hours after dose. […]
The percent of RE104 and its metabolites in relation to the total area of compound-related material was obtained by integration of the extracted ion chromatogram peaks on the full-scan mass-chromatograms. The percent of peak area for each component relative to the total peak area was determined by using the following formula: Component % peak area=(peak area of component ×100%/total integrated peak area of compound-related material).

[11] = molecular target: human recombinant 5-HT2A receptors (Homo sapiens, UniProt P28223); assay: 5-HT2A agonist radioligand binding assay ([125I]DOI)
Chain of human recombinant 5-HT2A receptors (P28223 whole entry): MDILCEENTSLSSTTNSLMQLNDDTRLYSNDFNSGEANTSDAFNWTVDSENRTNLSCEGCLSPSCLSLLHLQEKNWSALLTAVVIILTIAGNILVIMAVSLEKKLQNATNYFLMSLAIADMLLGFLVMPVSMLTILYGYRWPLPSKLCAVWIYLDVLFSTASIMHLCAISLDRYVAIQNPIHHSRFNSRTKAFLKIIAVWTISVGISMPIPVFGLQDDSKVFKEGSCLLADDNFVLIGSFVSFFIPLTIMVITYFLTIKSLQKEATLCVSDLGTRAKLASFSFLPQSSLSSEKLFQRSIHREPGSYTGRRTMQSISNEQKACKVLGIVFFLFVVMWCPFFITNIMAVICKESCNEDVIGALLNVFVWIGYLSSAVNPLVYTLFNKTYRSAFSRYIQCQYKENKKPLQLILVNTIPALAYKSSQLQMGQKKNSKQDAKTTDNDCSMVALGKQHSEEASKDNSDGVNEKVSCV
Description: (§2) Increasing concentrations of RE104 were incubated with 0.2 nM [^125I]DOI in CHO cell cultures expressing human recombinant 5-HT2B receptors.
(§3) Radioligand concentration was measured by scintillation counting; compound binding was calculated as percent inhibition of the binding of [^125I]DOI. In agonist activity assays, test concentrations of RE104 were incubated with HEK-293 cells expressing human recombinant 5-HT2A receptors; IP1 production was detected using homogeneous time-resolved fluorescence. Activation was calculated as a percentage of the response to the positive control (10 μM 5-HT).
(§4) Inhibition constants were calculated by using the Cheng-Prusoff equation Ki=IC50/(1+L/KD), where L=radioligand concentration and KD=radioligand affinity for the receptor (determined with a Scatchard plot). In the functional activity assay test concentrations of RE104 were 10 nM, 30 nM, 100 nM, 300 nM, 1 μM, 3 μM, 10 μM, and 30 μM. EC50 and IC50 values were determined by nonlinear regression analysis of the concentration-response curves generated with mean replicate values using Hill equation curve fitting.

[12] = molecular target: human recombinant 5-HT2B receptors (Homo sapiens, UniProt P41595); assay: 5-HT2B agonist radioligand binding assay ([125I]DOI)
Chain of human recombinant 5-HT2B receptors (P41595 whole entry): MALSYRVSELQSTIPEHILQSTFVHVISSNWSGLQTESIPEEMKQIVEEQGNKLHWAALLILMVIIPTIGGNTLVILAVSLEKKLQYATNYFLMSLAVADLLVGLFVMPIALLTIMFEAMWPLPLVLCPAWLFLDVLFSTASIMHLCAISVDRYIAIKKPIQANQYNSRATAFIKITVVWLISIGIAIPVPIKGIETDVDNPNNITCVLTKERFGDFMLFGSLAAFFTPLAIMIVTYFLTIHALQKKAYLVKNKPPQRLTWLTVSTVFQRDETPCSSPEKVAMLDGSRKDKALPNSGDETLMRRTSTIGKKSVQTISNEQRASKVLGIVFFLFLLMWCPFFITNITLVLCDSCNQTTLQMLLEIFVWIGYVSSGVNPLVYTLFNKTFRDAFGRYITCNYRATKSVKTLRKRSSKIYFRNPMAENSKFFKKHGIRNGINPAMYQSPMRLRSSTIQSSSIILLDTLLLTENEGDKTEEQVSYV
Description: as §2, §3, §4

[13] = GLP 14-day extended single SC dose toxicity study in dogs; details: beagle, dog, plasma, sc, 8 mg/kg
[14] = Rat PK after single IV or SC RE104 HCl 2 mg/kg (Example 1)

SMILES: CC(C)N(CCc1c[nH]c2cccc(O)c12)C(C)C [4-OH-DiPT, 3-(2-diisopropylamino-ethyl)-1H-indol-4-ol]
- AUC(0-t) [1]: 1230 ng·h/mL
- Cmax [1]: 542 ng/mL
- half-life (in vivo [2]; iv, 1 mg/kg): 0.631 h
- half-life (in vivo [2]; sc, 0.5 mg/kg): 0.95 h
- mean terminal half-life (in vivo [2]; RE104 IV dosing): 0.63 h
- mean terminal half-life (in vivo [2]; RE104 SC dosing): 0.95 h
- fraction unbound [3]: 0.4 to 0.7
- fraction unbound [4]: 0.07 to 0.2
- share of the total peak area [5]: 4.42%
- mean DEQ-High score (healthy females): ≤ 2
- Cmax ([6]; RE104 dose 5.5 mg SC (n = 6)): 18 ng/mL
- Tmax ([6]; RE104 dose 5.5 mg SC (n = 6)): 1.12 h
- half-life ([6]; RE104 dose 5.5 mg SC (n = 6)): 3.42 h
- Cmax ([6]; RE104 dose 11 mg SC (n = 6)): 60 ng/mL
- Tmax ([6]; RE104 dose 11 mg SC (n = 6)): 1.21 h
- half-life ([6]; RE104 dose 11 mg SC (n = 6)): 3.55 h
- Cmax ([6]; RE104 dose 22 mg SC (n = 6)): 77 ng/mL
- Tmax ([6]; RE104 dose 22 mg SC (n = 6)): 1.42 h
- half-life ([6]; RE104 dose 22 mg SC (n = 6)): 3.27 h
- Cmax ([6]; RE104 dose 33 mg SC (n = 9)): 137 ng/mL
- Tmax ([6]; RE104 dose 33 mg SC (n = 9)): 1.07 h
- half-life ([6]; RE104 dose 33 mg SC (n = 9)): 2.79 h
- Cmax ([6]; RE104 dose 38 mg SC (n = 6)): 124 ng/mL
- Tmax ([6]; RE104 dose 38 mg SC (n = 6)): 1.08 h
- half-life ([6]; RE104 dose 38 mg SC (n = 6)): 2.79 h
- Cmax ([6]; RE104 dose 44 mg SC (n = 3)): 275 ng/mL
- Tmax ([6]; RE104 dose 44 mg SC (n = 3)): 1.25 h
- half-life ([6]; RE104 dose 44 mg SC (n = 3)): 3.76 h
- AUC(0-t) (in vivo [7]): 103 ng·h/mL
- Cmax (in vivo [7]): 21.4 ng/mL
- Tmax (in vivo [7]): 4 h
- solubility [8]: < 2000 µg/mL
- onset of effect (mild physical awareness) (humans; 10 mg orally (Shulgin)): ≤ 1 h
- recovery (humans; 20 mg oral dose (Shulgin)): ≤ 3 h
- onset of effect (humans; 20 mg orally (Shulgin)): ≤ 15 min
- metabolites formed [9]: primarily producing O-glucuronide and negligible amounts of other metabolites
- share of total metabolites in plasma [10]: > 67%
- IC50 ([11]; read-out: IC50 at 5-HT2A, agonist radioligand assay): 150 nM
- Ki ([11]; read-out: binding Ki at the 5-HT2A receptor, radioligand inhibition binding, HEK-293 cells): 120 nM
- IC50 [12]: 42 nM
- AUC(0-t) [13]: 1010 ng·h/mL
- Cmax [13]: 360 ng/mL
- elimination half-life (t1/2) in plasma ([14]; RE104 HCl 2 mg/kg SC): 0.678 h
- half-life ([14]; plasma, iv, 2 mg/kg): 0.426 h
